Values quoted from earlier work as cited in article PMC9289467, “A Novel Multifunctional 5,6-Dimethoxy-Indanone-Chalcone-Carbamate Hybrids Alleviates Cognitive Decline in Alzheimer’s Disease by Dual Inhibition of Acetylcholinesterase and Inflammation” (Frontiers in Aging Neuroscience, 2022).

What was measured:
[1] = system: cerebrospinal fluid (CSF) Aβ; settings: chronic treatment, patients with AD; ref Nitsch et al., 2000; cited from earlier work
[2] = system: AChE-induced Aβ fibrillization; settings: PAS inhibitors; ref Inestrosa et al., 1996; cited from earlier work
[3] = system: APP processing; settings: rat brains; ref Farber et al., 1995; cited from earlier work

| Compound | cerebrospinal fluid (CSF) Aβ levels [1] | effect of AChE on Aβ fibril aggregation process [2] | APP processing [3] |
| --- | --- | --- | --- |
| CC1OC2(CS1)CN1CCC2CC1 (centres unmarked) [AF102B] | markedly lowered | – | – |
| CC[N+](C)(CC)CCC[n+]1c(-c2ccccc2)c2cc(N)ccc2c2ccc(N)cc21 [Propidium] | – | capable of preventing | – |
| CNC(=O)Oc1ccc2c(c1)[C@]1(C)CCN(C)[C@@H]1N2C [physostigmine] | did not show a significant effect | – | did not change APP processing |
| fasciculin | – | capable of preventing | – |
